The values below come from patent publication US20220323455A1, “FUSED HETEROCYCLIC DERIVATIVES AS ANTIVIRAL AGENTS” (priority 2019, published 2022).

Read-outs that look alike come from different tables or passages of the source.

One data set deals with HBV. The data set can be described thus: Anti-HBV activity in HepG2.117 cell line (intracellular HBV DNA, real-time PCR). The format is cell-based. The conditions noted are these: Hepatitis B virus, read-out: HBV-AVE-HepG2.117 EC50 (μM, mean value). Here is the method:
The anti HBV activity was measured using the HepG2.117 cell line, a stable, inducibly HBV producing cell line, which replicates HBV in the absence of doxicycline (Tet-off system). The HepG2 cell line is available from ATCC® under number HB-8065. Transfection of the HepG2 cell line can be as described in Sun and Nassal 2006 Journal of Hepatology 45 (2006) 636-645 “Stable HepG2- and Huh7-based human hepatoma cell lines for efficient regulated expression of infectious hepatitis B virus”.
For the antiviral assay, HBV replication was induced, followed by a treatment with serially diluted compound in 96-well plates. After 3 days of treatment, the antiviral activity was determined by quantification of intracellular HBV DNA using real-time PCR and an HBV specific primer set and probe.

The nature of data set [1]: Cytotoxicity in HepG2.117 cells (ATPlite Luminescence Assay). Type of data set: cell-based. The conditions noted are these: human, incubated for 3 days, cell viability, mean value, read-out: TOX-HepG2.117 CC50 (μM, mean value). Here is the method:
Cytotoxicity of the compounds was tested using HepG2 or HepG2.117 cells, incubated for 3 days in the presence of compounds. The viability of the cells was assessed using the PERKIN ELMER ATPlite Luminescence Assay System.”
On the technique in general: In ATP-based viability assays light output follows the ATP content of the culture.

Setting [2] is: 72 h, HepG2.117 cells, 3 days of treatment, intracellular HBV DNA, mean value.

As a reminder, the EC50 is the concentration giving half of the maximal effect. One may read the CC50 as the concentration giving 50% cytotoxicity. `C[C@@H]1Cc2nn3c(c2CN1C(=O)c1ccc(Cl)c(Cl)c1)C(F)(F)CC[C@@H](O)C3` (single isomer, unassigned) [Example C8, (3,4-Dichlorophenyl)[(3R,8*R)-11,11-difluoro-8-hydroxy-3-methyl-1,3,4,7,8,9,10,11-octahydro-2H-pyrido[4′,3′:3,4]pyrazolo[1,5-a]azepin-2-yl]methanone]: in the data set with HBV (setting [2]), the EC50 was 0.019 µM. Moreover, the CC50 at 3 days in data set [1] was greater than 50 µM.
In the same order, the values of `C[C@@H]1Cc2nn3c(c2CN1C(=O)c1ccc(Cl)c(Cl)c1)C(F)(F)CC[C@H](O)C3` (single isomer, unassigned) [Example C9, (3,4-Dichlorophenyl)[(3R,8*S)-11,11-difluoro-8-hydroxy-3-methyl-1,3,4,7,8,9,10,11-octahydro-2H-pyrido[4′,3′:3,4]pyrazolo[1,5-a]azepin-2-yl]methanone] are 0.018 µM and greater than 50 µM.
In the same order, the values of `C#C[C@]1(O)CCC(F)(F)c2c3c(nn2C1)C[C@@H](C)N(C(=O)c1ccc(Cl)c(Cl)c1)C3` (single isomer, unassigned) [Example C10, (3,4-Dichlorophenyl)[(3R,8*R)-8-ethynyl-11,11-difluoro-8-hydroxy-3-methyl-1,3,4,7,8,9,10,11-octahydro-2H-pyrido[4′,3′:3,4]pyrazolo[1,5-a]azepin-2-yl]methanone] are 0.078 µM and 36.9 µM.
On the same counts, the results for `C#C[C@@]1(O)CCC(F)(F)c2c3c(nn2C1)C[C@@H](C)N(C(=O)c1ccc(Cl)c(Cl)c1)C3` (single isomer, unassigned) [Example C11, (3,4-Dichlorophenyl)[(3R,8*S)-8-ethynyl-11,11-difluoro-8-hydroxy-3-methyl-1,3,4,7,8,9,10,11-octahydro-2H-pyrido[4′,3′:3,4]pyrazolo[1,5-a]azepin-2-yl]methanone] are 0.257 µM and 33.8 µM.
`C[C@@H]1Cc2nn3c(c2CN1C(=O)c1ccc(Cl)c(Cl)c1)C(F)(F)CC[C@@H](CO)C3` (single isomer, unassigned) [Example C12, (3,4-Dichlorophenyl)[(3R,8*R)-11,11-difluoro-8-(hydroxymethyl)-3-methyl-1,3,4,7,8,9,10,11-octahydro-2H-pyrido[4′,3′:3,4]pyrazolo[1,5-a]azepin-2-yl]methanone]: in the data set with HBV (setting [2]), the EC50 was determined as 0.048 µM. Also, in data set [1], the CC50 at 3 days was determined as 32.7 µM.
In the same order, the values of `C[C@@H]1Cc2nn3c(c2CN1C(=O)c1ccc(Cl)c(Cl)c1)C(F)(F)CC[C@H](CO)C3` (single isomer, unassigned) [Example C13, (3,4-Dichlorophenyl)[(3R,8*S)-11,11-difluoro-8-(hydroxymethyl)-3-methyl-1,3,4,7,8,9,10,11-octahydro-2H-pyrido[4′,3′:3,4]pyrazolo[1,5-a]azepin-2-yl]methanone] are less than 0.195 µM and 33.6 µM.
On the same counts, the results for `C[C@@H]1Cc2nn3c(c2CN1C(=O)c1ccc(Cl)c(Cl)c1)C(F)(F)CC[C@@H](C(C)(C)O)C3` (single isomer, unassigned) [Example C14, (3,4-Dichlorophenyl)[(3R,8*R)-11,11-difluoro-8-(2-hydroxypropan-2-yl)-3-methyl-1,3,4,7,8,9,10,11-octahydro-2H-pyrido[4′,3′:3,4]pyrazolo[1,5-a]azepin-2-yl]methanone] are less than 0.195 µM and 5.76 µM.
In the same order, the values of `COc1ccc(CN2CCn3nc4c(c3C(F)(F)C2)CN(C(=O)c2ccc(Cl)c(Cl)c2)[C@H](C)C4)cc1` [Example C1, (3,4-Dichlorophenyl){(3R)-11,11-difluoro-9-[(4-methoxyphenyl)methyl]-3-methyl-1,3,4,7,8,9,10,11-octahydro-2H-pyrido[4′,3′:3,4]pyrazolo[1,5-d][1,4]diazepin-2-yl}methanone] are 0.274 µM and 15.7 µM.
Regarding `C[C@@H]1Cc2nn3c(c2CN1C(=O)c1ccc(Cl)c(Cl)c1)C(F)(F)CNCC3` [Example C2, (3,4-Dichlorophenyl)[(3R)-11,11-difluoro-3-methyl-1,3,4,7,8,9,10,11-octahydro-2H-pyrido[4′,3′:3,4]pyrazolo[1,5-d][1,4]diazepin-2-yl]methanone], the EC50 in the data set with HBV (setting [2]) was found to be 0.088 µM. Moreover, the half-maximal cytotoxic concentration (CC50) at 3 days in data set [1] was greater than 50 µM.
As to `C[C@@H]1Cc2nn3c(c2CN1C(=O)c1ccc(Cl)c(Cl)c1)C(F)(F)CN(C)CC3` [Example C3, (3,4-Dichlorophenyl)[(3R)-11,11-difluoro-3,9-dimethyl-1,3,4,7,8,9,10,11-octahydro-2H-pyrido[4′,3′:3,4]pyrazolo[1,5-d][1,4]diazepin-2-yl]methanone], the EC50 in the data set with HBV (setting [2]) was 0.032 µM. For the same compound, the cytotoxic concentration (CC50) at 3 days in data set [1] is greater than 50 µM.
On the same counts, the results for `C[C@@H]1Cc2nn3c(c2CN1C(=O)c1ccc(Cl)c(Cl)c1)C(F)(F)CN(S(C)(=O)=O)CC3` [Example C4, (3,4-Dichlorophenyl)[(3R)-11,11-difluoro-9-(methanesulfonyl)-3-methyl-1,3,4,7,8,9,10,11-octahydro-2H-pyrido[4′,3′:3,4]pyrazolo[1,5-d][1,4]diazepin-2-yl]methanone] are 0.052 µM and greater than 50 µM.
Consider `C[C@@H]1Cc2nn3c(c2CN1C(=O)c1ccc(Cl)c(Cl)c1)C(F)(F)C(O)CCC3` (stereo partly drawn) [Example C6, (3,4-Dichlorophenyl)[(3R)-11,11-difluoro-10-hydroxy-3-methyl-1,3,4,7,8,9,10,11-octahydro-2H-pyrido[4′,3′:3,4]pyrazolo[1,5-a]azepin-2-yl]methanone], for which the EC50 in the data set on HBV (setting [2]) was found to be 3.28 µM. Further, the CC50 at 3 days in data set [1] is greater than 50 µM.
Consider `C[C@@H]1Cc2nn3c(c2CN1C(=O)c1ccc(Cl)c(Cl)c1)C(F)(F)C(Oc1ccc(C#N)cc1)CCC3` (stereo partly drawn) [Example C7, 4-{[(3R)-2-(3,4-Dichlorobenzoyl)-11,11-difluoro-3-methyl-1,3,4,7,8,9,10,11-octahydro-2H-pyrido[4′,3′:3,4]pyrazolo[1,5-a]azepin-10-yl]oxy}benzonitrile], for which the EC50 in the data set on HBV (HepG2.117, 72 h) amounted to 2.38 µM. Moreover, in data set [1], the CC50 at 3 days was greater than 50 µM.
On to `CC(=O)NCC1CCC(F)(F)c2c3c(nn2C1)CCN(C(=O)c1ccc(Cl)c(Cl)c1)C3` (centres unmarked) [Example C15, N-{[2-(3,4-dichlorobenzoyl)-11,11-difluoro-1,3,4,7,8,9,10,11-octahydro-2H-pyrido[4′,3′:3,4]-pyrazolo[1,5-a]azepin-8-yl]methyl}acetamide], for which the EC50 with HBV (setting [2]) turned out to be 0.221 µM. Besides, the CC50 at 3 days in data set [1] is greater than 50 µM.
For `COC(=O)NCC1CCC(F)(F)c2c3c(nn2C1)CCN(C(=O)c1ccc(Cl)c(Cl)c1)C3` (centres unmarked) [Example C16, Methyl {[2-(3,4-dichlorobenzoyl)-11,11-difluoro-1,3,4,7,8,9,10,11-octahydro-2H-pyrido-[4′,3′:3,4]pyrazolo[1,5-a]azepin-8-yl]methyl}carbamate], the EC50 in the data set with HBV (setting [2]) was found to be 0.177 µM. For the same compound, in data set [1], the CC50 at 3 days was found to be 38.2 µM.
In the case of `O=C(c1ccc(Cl)c(Cl)c1)N1CCc2nn3c(c2C1)C(F)(F)CCC(CNC(=O)C(F)(F)F)C3` (centres unmarked) [Example C17, N-{[2-(3,4-Dichlorobenzoyl)-11,11-difluoro-1,3,4,7,8,9,10,11-octahydro-2H-pyrido[4′,3′:3,4]-pyrazolo[1,5-a]azepin-8-yl]methyl}-2,2,2-trifluoroacetamide], the EC50 in the data set with HBV (HepG2.117, 72 h) is 0.326 µM. In data set [1], the CC50 at 3 days was 20 µM.
